Assay results taken from paper PMC11099021, “Mycobacterial biotin synthases require an auxiliary protein to convert dethiobiotin into biotin” (Nature Communications, 2024).

Legend:
BioB.ec = target: T1, BioB.ec (Escherichia coli, UniProt P12996); assay: biotin formation by LC-MS; assay type: biochemical; details: 100 µM DTB, 100 µM SAM; FldA/FNR/NADPH, MtnN; pH 8.0; 37 °C; anaerobic; without BsaP
T1 sequence (P12996 1-346): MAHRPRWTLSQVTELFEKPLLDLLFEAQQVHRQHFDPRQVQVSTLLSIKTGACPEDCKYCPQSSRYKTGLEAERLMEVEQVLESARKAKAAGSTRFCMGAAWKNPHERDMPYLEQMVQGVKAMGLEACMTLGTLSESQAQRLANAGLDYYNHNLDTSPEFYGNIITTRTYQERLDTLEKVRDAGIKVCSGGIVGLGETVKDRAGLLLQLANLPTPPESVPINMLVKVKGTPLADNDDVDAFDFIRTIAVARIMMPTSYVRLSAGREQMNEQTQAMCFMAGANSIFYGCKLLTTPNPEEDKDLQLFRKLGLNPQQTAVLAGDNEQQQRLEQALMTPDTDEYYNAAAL

BioB.tb-BsaP = BioB.tb-BsaP (Mycobacterium tuberculosis, UniProt P9WPQ7); assay: biotin formation by LC-MS, Morrison fit; assay type: biochemical
Source text: biotin formation by LC-MS, Morrison fit on BioB.tb-BsaP | acidomycin is indeed a potent inhibitor of BioB.tb displaying an inhibition constant Ki of […]

BsaP = target: T2, BsaP (Mycobacterium tuberculosis, UniProt P9WLT6)
T2 chain: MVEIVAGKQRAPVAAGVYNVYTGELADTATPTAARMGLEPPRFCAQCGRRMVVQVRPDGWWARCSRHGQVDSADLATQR

Molecule: C[C@@H]1NC(=O)N[C@@H]1CCCCCC(=O)O [DTB]
- biotin formation by LC-MS (BioB.ec): No difference in biotin production was observed when BsaP was added to BioB.ec

Molecule: O=C(O)CCCCC[C@@H]1NC(=O)CS1 [acidomycin]
- Ki (BioB.tb-BsaP): 110 nM

B1: BioB (protein)
chain: TQAATRPTNDAGQDGGNNSDILVVARQQVLQRGEGLNQDQVLAVLQLPDDRLEELLALAHEVRMRWCGPEVEVEGIISLKTGGCPEDCHFCSQSGLFASPVRSAWLDIPSLVEAAKQTAKSGATEFCIVAAVRGPDERLMAQVAAGIEAIRNEVEINIACSLGMLTAEQVDQLAARGVHRYNHNLETARSFFANVVTTHTWEERWQTLSMVRDAGMEVCCGGILGMGETLQQRAEFAAELAELGPDEVPLNFLNPRPGTPFADLEVMPVGDALKAVAAFRLALPRTMLRFAGGREITLGDLGAKRGILGGINAVIVGNYLTTLGRPAEADLELLDELQMPLKALNASL
- Kd (BsaP): 950 nM
